Literature values as cited in US20110321180A1, “COMPOSITIONS AND METHODS TO GENERATE PILOSEBACEOUS UNITS” (University of Southern California, priority 2008, published 2011).

B1: noggin: BMP antagonist protein, UniProt: Q13253 (protein, UniProt Q13253 28-232, looked up)
Noggin: QHYLHIRPAPSDNLPLVDLIEHPDPIFDPKEKDLNETLLRSLLGGHYDPGFMATSPPEDRPGGGGGAAGGAEDLAELDQLLRQRPSGAMPSEIKGLEFSEGLAQGKKQRLSKKLRRKLQMWLWSQTFCPVLYAWNDLGSRFWPRYVKVGSCFSKRSCSVPEGMVCKPSKSVHLTVLRWRCQRRGGQRCGWIPIQYPIISECKCSC

Assays:
[1] = DMSO
[2] = in published reports

Molecule	solubility [1]	toxicity [2]	size of hair germs (hair germs)
c1cc(-c2cnn3cc(-c4ccc(OCCN5CCCCC5)cc4)cnc23)ccn1 [Dorsomorphin]	soluble in DMSO	low toxicity	–
B1	–	–	makes hair germs bigger
